Test results published in paper PMC8086025, “A benzopyran with antiarrhythmic activity is an inhibitor of Kir3.1-containing potassium channels” (The Journal of Biological Chemistry, 2021).
Several values for one entry are separate records, joined by “and”; a condition that tells them apart may be missing. Equal entries are not always repeated. Where two headings read alike, the source gives them in different places.

Legend:
Kir3.4 = target: T1, Kir3.4 (Homo sapiens, UniProt P48544); test: Cloned cardiac ion channel patch clamp, Kir3.4; type: cell-based
T1 construct: expressed in transfected cells

Nav = test: Radioligand binding, rat cerebral cortex
[1] = target: T2, Non-steroid nuclear receptors PPARγ (Homo sapiens, UniProt P37231); test: Radioligand binding, [3H]rosiglitazone; settings: read-out: % Specific Binding at 10 µM
T2 construct: purchased; host or cells: E. coli
T2 sequence (P37231 whole entry): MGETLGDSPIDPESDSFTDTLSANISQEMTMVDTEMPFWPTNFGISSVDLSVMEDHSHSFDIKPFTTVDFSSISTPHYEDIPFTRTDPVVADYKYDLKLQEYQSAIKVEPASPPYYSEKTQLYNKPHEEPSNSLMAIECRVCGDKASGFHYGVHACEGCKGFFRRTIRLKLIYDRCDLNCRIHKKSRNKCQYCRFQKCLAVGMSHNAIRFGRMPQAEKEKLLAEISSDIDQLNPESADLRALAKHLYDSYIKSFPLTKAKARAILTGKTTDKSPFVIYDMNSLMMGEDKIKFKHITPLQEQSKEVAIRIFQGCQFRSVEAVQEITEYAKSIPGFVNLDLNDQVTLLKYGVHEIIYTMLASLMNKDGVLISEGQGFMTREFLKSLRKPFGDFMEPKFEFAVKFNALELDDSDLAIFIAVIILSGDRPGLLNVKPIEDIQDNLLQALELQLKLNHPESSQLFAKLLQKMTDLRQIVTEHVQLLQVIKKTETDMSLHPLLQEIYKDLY

Kir3.1/2 channel = target: T3, Kir3.1/2 channel (UniProt P48542+P48549); test: Whole-cell patch clamp, HEK293T cells, Kir3.1/2; type: cell-based, human Kir3.1, mouse Kir3.2; set-up: expressed in transfected cells; host or cells: HEK293T; settings: whole-cell patch-clamp HEK-293 cells; read-out: IC50, inhibition of Kir3.1/2
T3 sequence (P48549 1-501): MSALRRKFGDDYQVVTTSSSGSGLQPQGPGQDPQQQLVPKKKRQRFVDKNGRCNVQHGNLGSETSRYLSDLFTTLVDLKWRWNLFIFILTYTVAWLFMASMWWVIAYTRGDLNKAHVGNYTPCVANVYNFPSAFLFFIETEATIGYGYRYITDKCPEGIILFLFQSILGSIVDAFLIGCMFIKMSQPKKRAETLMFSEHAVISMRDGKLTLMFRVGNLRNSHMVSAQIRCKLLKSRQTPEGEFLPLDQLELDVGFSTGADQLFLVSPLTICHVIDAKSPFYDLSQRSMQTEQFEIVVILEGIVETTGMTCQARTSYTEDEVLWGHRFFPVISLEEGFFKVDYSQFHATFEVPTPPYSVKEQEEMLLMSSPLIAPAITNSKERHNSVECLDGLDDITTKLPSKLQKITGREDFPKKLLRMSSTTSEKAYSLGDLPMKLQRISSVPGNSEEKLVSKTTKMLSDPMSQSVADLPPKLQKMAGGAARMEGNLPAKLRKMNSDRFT
T3 sequence (P48542 1-425): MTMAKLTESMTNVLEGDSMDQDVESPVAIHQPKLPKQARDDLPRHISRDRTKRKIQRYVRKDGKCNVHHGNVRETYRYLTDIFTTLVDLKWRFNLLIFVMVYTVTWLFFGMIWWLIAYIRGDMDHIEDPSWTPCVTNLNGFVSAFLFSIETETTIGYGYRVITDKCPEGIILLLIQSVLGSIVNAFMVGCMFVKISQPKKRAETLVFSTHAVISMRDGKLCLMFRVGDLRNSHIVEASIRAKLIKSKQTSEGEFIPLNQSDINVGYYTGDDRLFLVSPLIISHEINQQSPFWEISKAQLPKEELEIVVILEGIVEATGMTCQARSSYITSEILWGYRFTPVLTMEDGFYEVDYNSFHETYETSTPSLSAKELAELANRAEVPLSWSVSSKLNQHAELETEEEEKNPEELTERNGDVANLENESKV
Protocol: (§1) For the experiments shown in Figure 1, G and H, whole-cell currents were recorded with an Axopatch 200B amplifier and pCLAMP software (Molecular Devices). HEK293T cells were transiently transfected with 1 μg Kir3.1 together with 1 μg Kir3.2 or 1 μg Kir3.4 DNA, using polyethylenimine (PEI). The cells were maintained in DMEM supplemented with 10% Fetal Bovine Serum and 1% Penicillin/Streptomycin at 37 °C in a 5% CO2 humidified atmosphere and were studied 24 to 48 h after transfection. HEK293T cells were bathed in Low K^+ (LK) solution (135 mM NaCl, 5 mM KCl, 1.2 mM MgCl2, 1.5 mM CaCl2, 8 mM Glucose, 10 mM HEPES with pH 7.4). High K^+ (HK) solution (5 mM NaCl, 135 mM KCl, 1.2 mM MgCl2, 1.5 mM CaCl2, 8 mM Glucose, 10 mM HEPES with pH 7.4) was perfused to establish basal currents. BP-G1 in HK solution was perfused sequentially in a concentration response manner prior to applying 5 mM BaCl2 in HK to identify remaining barium-insensitive leak currents and subtract them from the current records. […] Cells used in the experiments were selected based on eGFP fluorescence. A ramp protocol from −80 mV to +80 mV was used and currents were recorded at −80 mV in the whole-cell mode (using the Strathclyde Electrophysiology Software from the University of Strathclyde, Glasgow). The patch-clamp data were analyzed offline in pClamp (Molecular Devices) and OriginLab software. […]

[2] = Rat PK, IV/PO cross over and brain penetration; type: in vivo
Kir3.1/4 channel = target: T4, Kir3.1/4 channel (Homo sapiens, UniProt P48544+P48549); test: Whole-cell patch clamp, HEK293T cells, Kir3.1/4; type: cell-based; set-up: expressed in transfected cells; settings: whole-cell patch-clamp HEK-293 cells; read-out: IC50, inhibition of Kir3.1/4
T4 sequence (P48549 1-501): T3 sequence (P48549 1-501)
T4 sequence (P48544 1-419): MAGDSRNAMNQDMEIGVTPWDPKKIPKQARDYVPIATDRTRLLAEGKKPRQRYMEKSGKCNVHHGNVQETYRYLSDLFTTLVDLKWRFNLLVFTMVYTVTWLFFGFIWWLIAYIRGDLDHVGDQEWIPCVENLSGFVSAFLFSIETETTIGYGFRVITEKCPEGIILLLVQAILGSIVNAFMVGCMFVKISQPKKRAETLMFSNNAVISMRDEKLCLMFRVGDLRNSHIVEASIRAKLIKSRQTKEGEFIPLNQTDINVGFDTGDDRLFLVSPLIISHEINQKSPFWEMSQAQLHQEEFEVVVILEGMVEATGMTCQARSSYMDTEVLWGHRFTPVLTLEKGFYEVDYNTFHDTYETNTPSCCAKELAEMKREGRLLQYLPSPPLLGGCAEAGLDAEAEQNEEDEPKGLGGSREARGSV
Protocol: as §1

Kir3.1(T143A)/4 = Kir3.1(T143A)/4 (Homo sapiens, UniProt P48544+P48549, T143A); type: cell-based; settings: 1 μM, TEVC
Kir3.1(T143A)/4, sequence (P48549 whole entry T143A, one chain of several): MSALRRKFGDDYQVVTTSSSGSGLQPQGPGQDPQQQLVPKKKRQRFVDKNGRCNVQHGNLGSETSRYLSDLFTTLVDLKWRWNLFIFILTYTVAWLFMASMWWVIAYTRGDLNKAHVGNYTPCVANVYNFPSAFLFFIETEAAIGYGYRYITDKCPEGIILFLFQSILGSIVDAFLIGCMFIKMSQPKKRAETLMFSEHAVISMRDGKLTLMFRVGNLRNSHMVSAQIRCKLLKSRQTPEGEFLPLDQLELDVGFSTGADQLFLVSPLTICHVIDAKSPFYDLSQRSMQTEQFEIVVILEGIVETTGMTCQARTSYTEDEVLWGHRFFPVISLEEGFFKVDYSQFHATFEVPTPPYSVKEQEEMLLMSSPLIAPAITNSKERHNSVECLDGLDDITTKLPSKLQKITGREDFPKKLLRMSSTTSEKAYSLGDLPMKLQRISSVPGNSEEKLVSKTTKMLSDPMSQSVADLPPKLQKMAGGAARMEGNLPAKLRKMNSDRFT

With Cc1cc(CO)nc2cc3c(cc12)OC(C)(C)[C@H](O)[C@H]3NCCc1ccccc1 [BP-G1, (3R,4S)-7-(hydroxymethyl)-2,2,9-trimethyl-4-(2-phenylethylamino)-3,4-dihydropyrano[2,3-g]quinolin-3-ol] the IC50 (Kir3.4) was 19800 nM, the “% Specific Binding at 10 µM” value (Nav) was 65.1% and the “% Specific Binding at 10 µM” value (Nav; listed as Benzopyran-G1) was 65.100%. For the same compound, the inhibition at 10 µM [1] was less than 50%, the IC50 (Kir3.1/2 channel) was 10 to 30 nM and 32.2 nM and the Co ([2]; 1mg/kg iv.) was 3941 ng/mL. The CL ([2]; 5mg/kg po.) was 3.3 mL/min/kg, the Kp ([2]; rat, brain and plasma, 5mg/kg po., read-out: CNS Penetration (B:P)) was 0.2 and the Vd ([2]; rat, in vivo, 1mg/kg iv.) was 1 L/kg. For the same compound, the clearance ([2]; rat, in vivo, 1mg/kg iv.) was 3.39 mL/min/kg, the bioavailability ([2]; rat, in vivo, 1mg/kg iv. / 5mg/kg po., read-out: Oral bioavailability F%) was 32% and the AUC(0-inf) ([2]; rat, in vivo, 1mg/kg iv., read-out: Rat iv. AUC∞) was 4950 ng·h/mL. The Cmax ([2]; rat, in vivo, 5mg/kg po.) was 1190 ng/mL, the AUC(0-t) ([2]; rat, in vivo, 5mg/kg po., read-out: Rat p.o. AUCt) was 6420 ng·h/mL and the AUC(0-inf) ([2]; rat, in vivo, 5mg/kg po., read-out: Rat p.o. AUC∞) was 16800 ng·h/mL. The half-life ([2]; rat, in vivo, listed under 5mg/kg po.) was 12.2 h, the IC50 (Kir3.1/4 channel) was 10 to 30 nM and 10.5 nM and the “block of Kir3.1(T143A)/4” value (Kir3.1(T143A)/4) was “no significant reduction in BP-G1 block”.
